Assay results taken from ChEMBL document CHEMBL1201862, “PubChem BioAssay data set” (2004).
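Following 48 hours of exposure in 96-well plates, responses at five concentrations were used to interpolate endpoints linearly. Abbreviation: GI50, concentration required for 50% inhibition of growth.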 Active and inactive are the calls of the source. Cut-off read from the data, not from the text of the source: active = GI50 up to about 1.1 µM and inactive = higher.

What was measured:
Test in all cases: NCI tumour cell line growth inhibition, 48 h
SK-MEL-5 = tested on: SK-MEL-5
CAKI-1 = tested on: CAKI-1
HCT-15 = tested on: HCT-15
NCI-H522 = tested on: NCI-H522
PC-3 = tested on: PC-3
NCI-H460 = tested on: NCI-H460
SF-295 = tested on: SF-295
NCI-H23 = tested on: NCI-H23
A549 = tested on: A549
MDA-N = tested on: MDA-N
M14 = tested on: M14
BT-549 = tested on: BT-549
MDA-MB-435 = tested on: MDA-MB-435
DU-145 = tested on: DU-145
SW-620 = tested on: SW-620
786-0 = tested on: 786-0
Malme-3M = tested on: Malme-3M
SR = tested on: SR
HCC 2998 = tested on: HCC 2998
RXF 393 = tested on: RXF 393

| Compound | GI50 (SK-MEL-5) | GI50 (CAKI-1) | GI50 (HCT-15) | GI50 (NCI-H522) | GI50 (PC-3) | GI50 (NCI-H460) | GI50 (SF-295) | GI50 (NCI-H23) | GI50 (A549) | GI50 (MDA-N) | GI50 (M14) | GI50 (BT-549) | GI50 (MDA-MB-435) | GI50 (DU-145) | GI50 (SW-620) | GI50 (786-0) | GI50 (Malme-3M) | GI50 (SR) | GI50 (HCC 2998) | GI50 (RXF 393) |
| --- | --- | --- | --- | --- | --- | --- | --- | --- | --- | --- | --- | --- | --- | --- | --- | --- | --- | --- | --- | --- |
| CCCCCCCCCCCC(=O)OCC(O)CO (stereo unspecified) [GLYCEROL MONOLAURATE] | 59 µM (inactive) | > 100 µM (inactive) | > 100 µM | > 100 µM (inactive) | > 100 µM (inactive) | 80.5 µM (inactive) | > 100 µM (inactive) | 67.3 µM (inactive) | 54.1 µM (inactive) | 88.9 µM (inactive) | 69.7 µM (inactive) | 36.4 µM (inactive) | 61.4 µM (inactive) | > 100 µM (inactive) | > 100 µM (inactive) | > 100 µM (inactive) | – | – | – | – |
| COC1=CC(=O)C(C2(OC(C)C)OC(=O)C(Cl)=C2Cl)=CC1=O (stereo unspecified) | > 100 µM (inactive) | > 100 µM (inactive) | > 100 µM | 25.8 µM (inactive) | > 100 µM (inactive) | > 100 µM (inactive) | > 100 µM (inactive) | > 100 µM (inactive) | > 100 µM (inactive) | 49.1 µM (inactive) | > 100 µM (inactive) | – | 41.3 µM (inactive) | > 100 µM (inactive) | > 100 µM (inactive) | 28.9 µM (inactive) | > 100 µM (inactive) | 0.0115 µM (active) | > 100 µM (inactive) | > 100 µM (inactive) |
| CC1(C)[C@@H]2CC[C@]1(C)[C@H](OC(=O)CSC#N)C2 | > 100 µM (inactive) | > 100 µM (inactive) | > 100 µM | 43.9 µM (inactive) | > 100 µM (inactive) | > 100 µM (inactive) | > 100 µM (inactive) | > 100 µM (inactive) | > 100 µM (inactive) | > 100 µM (inactive) | 47.1 µM (inactive) | > 100 µM (inactive) | 46.2 µM (inactive) | > 100 µM (inactive) | 17.9 µM (inactive) | 18.3 µM (inactive) | > 100 µM (inactive) | – | > 100 µM (inactive) | > 100 µM (inactive) |
| COC(=O)[C@]12CC3C=CC1N(C3)C(CBr)c1c2n(S(=O)(=O)c2ccccc2)c2ccccc12 (stereo partly specified) | > 100 µM (inactive) | 74.6 µM (inactive) | 72.8 µM | 27.9 µM (inactive) | 42.8 µM (inactive) | 98.6 µM (inactive) | 42.2 µM (inactive) | 51.5 µM (inactive) | 50.5 µM (inactive) | 60.1 µM (inactive) | > 100 µM (inactive) | > 100 µM (inactive) | 76.2 µM (inactive) | > 100 µM (inactive) | > 100 µM (inactive) | 43 µM (inactive) | 72.9 µM (inactive) | – | > 100 µM (inactive) | 33.2 µM (inactive) |
| CCOC(=O)C1=COC(C)(c2ccccc2)CC1=O (stereo unspecified) | > 100 µM (inactive) | > 100 µM (inactive) | > 100 µM | > 100 µM (inactive) | > 100 µM (inactive) | > 100 µM (inactive) | > 100 µM (inactive) | > 100 µM (inactive) | > 100 µM (inactive) | > 100 µM (inactive) | > 100 µM (inactive) | > 100 µM (inactive) | > 100 µM (inactive) | > 100 µM (inactive) | > 100 µM (inactive) | > 100 µM (inactive) | – | – | > 100 µM (inactive) | 63.1 µM (inactive) |
| CO[P@]1(=O)O[C@@H](c2ccccc2)[C@H](O)[C@]1(O)c1ccccc1 | > 100 µM (inactive) | > 100 µM (inactive) | > 100 µM | > 100 µM (inactive) | > 100 µM (inactive) | > 100 µM (inactive) | > 100 µM (inactive) | > 100 µM (inactive) | > 100 µM (inactive) | > 100 µM (inactive) | > 100 µM (inactive) | > 100 µM (inactive) | > 100 µM (inactive) | > 100 µM (inactive) | > 100 µM (inactive) | > 100 µM (inactive) | > 100 µM (inactive) | – | – | > 100 µM (inactive) |
| Cc1ccccc1C1CC(=O)CC(c2ccccc2C)C12C(=O)NC(=O)NC2=O (stereo unspecified) | > 100 µM (inactive) | > 100 µM (inactive) | > 100 µM | > 75.3 µM (inactive) | > 100 µM (inactive) | > 88.5 µM (inactive) | > 100 µM (inactive) | > 100 µM (inactive) | > 100 µM (inactive) | – | > 100 µM (inactive) | > 100 µM (inactive) | > 77.8 µM (inactive) | > 100 µM (inactive) | > 100 µM (inactive) | > 100 µM (inactive) | > 100 µM (inactive) | > 100 µM (inactive) | > 100 µM (inactive) | > 100 µM (inactive) |
| O=C1CCCn2c(nc3ccccc32)N1 | > 100 µM (inactive) | > 100 µM (inactive) | > 100 µM | > 100 µM (inactive) | > 100 µM (inactive) | > 100 µM (inactive) | > 100 µM (inactive) | > 100 µM (inactive) | > 100 µM (inactive) | – | > 100 µM (inactive) | > 100 µM (inactive) | > 100 µM (inactive) | – | > 100 µM (inactive) | > 100 µM (inactive) | > 100 µM (inactive) | > 100 µM (inactive) | – | > 100 µM (inactive) |
| CC(C)=C1C(=O)C[C@]2(C)C[C@H]3/C(=C(/C)CCC12)CC[C@@]3(C)O (stereo partly specified) | 40.4 µM (inactive) | > 50 µM (inactive) | 40.1 µM | 29 µM (inactive) | 30.7 µM (inactive) | – | > 50 µM (inactive) | > 50 µM (inactive) | > 50 µM (inactive) | – | > 50 µM (inactive) | > 50 µM (inactive) | > 50 µM (inactive) | > 50 µM (inactive) | > 50 µM (inactive) | > 50 µM (inactive) | – | 20.7 µM (inactive) | > 50 µM (inactive) | 40.9 µM (inactive) |
| Cn1c(=O)c2c(ncn2CCSS(=O)(=O)O)n(C)c1=O | > 100 µM (inactive) | > 100 µM (inactive) | > 100 µM | > 100 µM (inactive) | > 100 µM (inactive) | 66.4 µM (inactive) | > 100 µM (inactive) | > 100 µM (inactive) | > 100 µM (inactive) | > 100 µM (inactive) | 72.3 µM (inactive) | > 100 µM (inactive) | > 100 µM (inactive) | > 100 µM (inactive) | > 100 µM (inactive) | > 100 µM (inactive) | > 100 µM (inactive) | – | – | 79.1 µM (inactive) |
| O=C1c2ccccc2C(=O)c2c(NCCCN3CCOCC3)ccc(NCCCN3CCOCC3)c21 | 2.51 µM (inactive) | 4.45 µM (inactive) | 2.55 µM | 0.67 µM (active) | 2.61 µM (inactive) | 1.54 µM (inactive) | 1.94 µM (inactive) | < 0.01 µM (active) | 4.18 µM (inactive) | 3.22 µM (inactive) | 3.1 µM (inactive) | 6.62 µM (inactive) | – | < 0.01 µM (active) | 3.97 µM (inactive) | 2.29 µM (inactive) | 8.89 µM (inactive) | 5.57 µM (inactive) | 2.86 µM (inactive) | 8.36 µM (inactive) |
| Cc1ccc(-n2cc(-c3ccc(Cl)cc3)c3c(=N)n(N)cnc32)cc1 | 7.43 µM (inactive) | 18.5 µM (inactive) | 15.6 µM | 14.5 µM (inactive) | 6.41 µM (inactive) | 10.3 µM (inactive) | 15.4 µM (inactive) | 16.1 µM (inactive) | 15.1 µM (inactive) | 11.5 µM (inactive) | 5.75 µM (inactive) | 16.9 µM (inactive) | 11.1 µM (inactive) | 17.5 µM (inactive) | 12.4 µM (inactive) | 11.9 µM (inactive) | 13.2 µM (inactive) | – | 6.11 µM (inactive) | 4.69 µM (inactive) |
| CS(=O)(=O)c1ccc(C(=O)O[C@@H]2C(=O)N3CC[C@H]4OC(O)[C@@H]2[C@H]43)cc1 (stereo partly specified) | > 100 µM (inactive) | > 100 µM (inactive) | > 100 µM | – | > 100 µM (inactive) | > 100 µM (inactive) | > 100 µM (inactive) | > 100 µM (inactive) | > 100 µM (inactive) | – | > 100 µM (inactive) | > 100 µM (inactive) | > 100 µM (inactive) | > 100 µM (inactive) | > 100 µM (inactive) | 60.7 µM (inactive) | – | > 100 µM (inactive) | > 100 µM (inactive) | > 100 µM (inactive) |
| C=C(CC[C@@H](C(=O)O)[C@H]1[C@H](O)C[C@@]2(C)C3=CC[C@@H](C(=C)C)[C@](C)(CCC(=O)O)C3=CC[C@]12C)C(C)C [PORICOIC ACID A] | 20.4 µM (inactive) | 15.2 µM (inactive) | 17.2 µM | 20.4 µM (inactive) | 18.7 µM (inactive) | 18.2 µM (inactive) | 17.5 µM (inactive) | 16.9 µM (inactive) | 18.7 µM (inactive) | 16.9 µM (inactive) | 17.9 µM (inactive) | 18.5 µM (inactive) | 18.8 µM (inactive) | 20.6 µM (inactive) | 22.2 µM (inactive) | 16.6 µM (inactive) | 22.5 µM (inactive) | – | 17.9 µM (inactive) | 17.2 µM (inactive) |
| O=C(CCN1CCOCC1)c1ccc(Oc2ccc(F)cc2)cc1 | 31.3 µM (inactive) | 18 µM (inactive) | 19 µM | – | 19.2 µM (inactive) | > 100 µM (inactive) | > 100 µM (inactive) | 26.7 µM (inactive) | > 100 µM (inactive) | 23.8 µM (inactive) | 18.4 µM (inactive) | 18.2 µM (inactive) | 37.6 µM (inactive) | 36 µM (inactive) | 30.3 µM (inactive) | 17.1 µM (inactive) | 20.4 µM (inactive) | – | 37.2 µM (inactive) | – |
